# Laboratory results from patent publication US8691749B2, “Peptide and use thereof” (Ensoltek Co., Ltd., priority 2009, dated 2014).
# Key:
# TGF-beta1 signaling = TGF-beta1 signaling inhibition: phosphorylated Smad2 Western blot in HepG2 cells; format: cell-based
# Experimental: Inhibition of TGF-beta1 signaling by the peptide of Example 1 was confirmed in accordance with the following experimental method.
# Treatment of HepG2 cells with TGF-beta1 is known to result in apoptosis, during which Smad2 is first phosphorylated (Park T J. et al., Mol. Carcinog. 47:784-796, 2008; and Gressner A M. et al., J Hepatol. 26:1079-1092, 1997). Using these properties, the experiment was carried out as follows. 1×10^6 of HepG2 cells (ATCC; American Type Culture Collection) were seeded in a 60 mm dish, stabilized overnight, and then depleted of nutrients by serum-free media (SFM) for 24 hours. Prior to treatment of the cells with the peptide of Example 1, 5 ng/mL of TGF-beta1 (PromoKine, Germany) and the above peptide (1, 5, and 25 μM) were subjected to pre-incubation at 37° C. for 1 hour. Further, DMSO (2 μl/mL) was also pre-incubated with TGF-beta1 (5 ng/mL) at 37° C. for 1 hour. Then, the cells were treated with the pre-incubated solutions for 30 minutes, followed by extraction of proteins. In addition, the cells were previously treated only with […] of SB431542 (TOCRIS, USA), an inhibitor of the TGF-beta receptor, followed by incubation for 1 hour, and then treated with TGF-beta1 (5 ng/mL) for 30 minutes. Then, the cells were homogenized on ice in Radioimmunoprecipitation (RIPA) Lysis Buffer (Millipore) {50 mM Tris-HCl (pH 7.4), 150 mM NaCl, 0.25% deoxycholic acid, 1% NP-40, 1 mM ethylenediaminetetraacetic acid (EDTA), 1 mM phenylmethylsulfonyl fluoride (PMSF), 40 mM NaF, 1 mM Na3VO4, 1 mM dithiothreitol (DTT)}. […]
# FIG. 3 illustrates the Western blot results (Lane 1: non-treated HepG2 cells, Lane 2: TGF-beta1-treated cells, Lane 3: TGF-beta1/SB431542-treated cells, Lanes 4, 5 and 6: cells treated with 1, 5, and 25 μM of peptide/TGF-beta1, respectively, and Lane 7: TGF-beta1/DMSO-treated cells). […] The bottom of FIG. 3 illustrates the Coomassie Blue staining results of the membrane used in Western blot, showing that the quantity of the protein is the same in all the lanes.
# aggrecan gene = assay: Aggrecan gene expression in disc tissues by real-time PCR in disc degeneration model; format: in vivo, rabbits (New Zealand white rabbits); conditions: Week 4 after first administration; 0.5 mM/animal intradiscal at Weeks 0 and 2
# Experimental: Real-time PCR was carried out to examine a gene expression level of aggrecan, which is a representative extracellular matrix component in disc tissues.
# In the same manner as in Example 2-1, animals were prepared and divided into two groups, to each of which DMSO and the peptide of Example 1 (0.5 mM/animal) were administered by local intradiscal injection. The administration point for each group was 4 weeks after the induction of disc degeneration and 2 weeks thereafter. After the second administration, the animals were raised for 2, 4, and 8 weeks, respectively. […]
# The quantity of mRNA of GAPDH and aggrecan was examined by a Prism 7900HT (ABI) using PowerSYBR Green PCR Master Mix (Applied Biosystems Inc.). […] GAPDH was selected as a reference gene, and a CT value difference (ΔCT) between the reference gene and the aggrecan gene was calculated. In addition, a CT value difference (ΔΔCT) between the normal disc and the Example 1 peptide-administered disc (or DMSO-administered disc) was calculated. Then, 2^(−ΔΔCT) was calculated and expressed in terms of percentage relative to the normal disc value.
# degenerated disc tissue = assay: Disc regeneration effects by disc tissue staining (H&E) in disc degeneration model; format: in vivo, rabbits (New Zealand white rabbits); conditions: 0.5 mM/animal, local intradiscal injection twice
# Experimental: 30 rabbits (New Zealand white rabbits; Orient Bio Inc.), weighing 3 to 3.5 kg, were prepared irrespective of sex.
# The rabbits were anesthetized by intramuscular injection of 5 mg/kg of xylazine (Rompun, Bayer) and 35 mg/kg of ketamine hydrochloride (Ketalar, Pfizer). Prior to the procedure, lateral plain X-ray using a fluoroscopic apparatus (Model VPX-200; Toshiba Co.) was obtained to establish the pre-injection baseline height of intervertebral disc. The baseline control refers to a standard for measurement of a disc space. After the rabbits were positioned on the laboratory table, L23, L34, L45, and L56 disc levels were confirmed by the machine, and annulus fibrosus was stabbed into the posterolateral side of the disc at L23, L45, and L56 levels, using an 18G needle. After recovery from the anesthesia, the animals were housed in a cage under the following breeding conditions: temperature 20-25° C., humidity 10%-50%, and Light/Dark (L/D) cycle: (light from 08:00 a.m. to 20:00 p.m.). All animals were fed once a day. X-ray photographs were taken 2 and 4 weeks after the initial annular puncture. The X-ray was taken after anesthesia. Based on the results of X-ray, an intervertebral disc height (IVD height) was measured. From the measurement results, disc degeneration degree was quantified by a modification of the method disclosed in Lu et al., Spine. 22:1828-34, 1997.
# Thereafter, experiments were carried out for two separate groups, DMSO-administered control group and Example 1 peptide-administered experimental group, and the rabbits were euthanized by injection of ketamine (25 mg/kg) and sodium pentobarbital (1.2 g/kg, Nembutal, Ovation) according to the planned schedule, followed by extraction of the disc for histological and biochemical analysis, respectively.
# Disc-degenerated rabbits from Section 2-1 were divided into two groups. Each group was given dimethyl sulfoxide (DMSO) and the peptide of Example 1 (0.5 mM/animal) by local intradiscal injection twice. The administration point for each group was 4 weeks after the induction of disc degeneration and 2 weeks thereafter. After the second administration, the animals were raised for 2, 4, and 8 weeks, respectively. At Weeks 4, 6, and 10 after the first administration of each of the Example 1 peptide and DMSO, the corresponding respective disc tissues were extracted and fixed in formalin. The fixed disc tissues were embedded in paraffin, and serial sections having a thickness of […] along the sagittal plane were prepared. Of these sections, two mid-sagittal sections were stained with hematoxylin and eosin (H&E). For the comparison with the normal disc tissue, the disc was extracted, treated and stained from the rabbits with no induction of disc degeneration according to the same method described above. […]
Compound,"phosphorylation of Smad2 (TGF-beta1 signaling; pre-treated with 1004 of SB431542 for 1 hour, then TGF-beta1 5 ng/mL for 30 minutes)",aggrecan gene expression as compared to the DMSO-administered disc tissue (aggrecan gene),"phosphorylation degree of Smad2 (TGF-beta1 signaling; peptide 1, 5 and 25 μM pre-incubated with TGF-beta1 5 ng/mL for 1 hour, cells treated 30 minutes)","extent of TGF-beta1 signaling inhibition (TGF-beta1 signaling; peptide 1, 5 and 25 μM, compared with SB431542)",distinction between nucleus pulposus and annulus fibrosus (degenerated disc tissue; Week 10),extracellular matrix components in disc tissue (degenerated disc tissue; Week 10),size of disc as compared to the DMSO-administered disc tissue (degenerated disc tissue; Week 10),"staining of cell nuclei in the nucleus pulposus region (degenerated disc tissue; Week 10, x400)"
"NC(=O)c1ccc(-c2nc(-c3ccc4c(c3)OCO4)c(-c3ccccn3)[nH]2)cc1 [SB431542, reference compound]",complete inhibition of phosphorylation,,,,,,,
LQVVYLH [Example 1],,increase in the aggrecan gene expression,decreased in a dose-dependent manner,does not completely inhibit TGF-beta1 signaling,discernible between the nucleus pulposus and the annulus fibrosus,abundance of extracellular matrix components,increased size of disc,vivid staining of the cell nuclei
